Tests used:
Conditions in all cases: exposure time: 90 min
1565 [1] = donor line of iPSC-derived cardiomyocytes; assay: POD (EC05) for decrease in beat frequency (negative chronotrope) vs vehicle; higher = less potent (higher point of departure)
Summary of the method: (§1)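 Human iPSC-derived cardiomyocytes from 16 donors, dye-loaded for Ca2+, were treated for 90 min at 37 °C at final concentrations of 0.1, 1, 10 and 100 µM in 0.5% DMSO. Ca2+ flux was measured on a FLIPR Tetra before and after treatment. Hierarchical Bayesian Hill fitting of vehicle-normalised beat frequency, decay-to-rise ratio or peak frequency yielded donor-specific points of departure. Thresholds: 5% change, or 95% loss for peak frequency.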

30145 = donor line of iPSC-derived cardiomyocytes; assay: as above
Summary of the method: as §1

1516 [2] = donor line of iPSC-derived cardiomyocytes; assay: as above
Summary of the method: as §1

1309 [3] = donor line of iPSC-derived cardiomyocytes; assay: as above
Summary of the method: as §1

20032 [4] = donor line of iPSC-derived cardiomyocytes; assay: as above
Summary of the method: as §1

20084 [5] = donor line of iPSC-derived cardiomyocytes; assay: as above
Summary of the method: as §1

1535 = donor line of iPSC-derived cardiomyocytes; assay: as above
Summary of the method: as §1

1392 = donor line of iPSC-derived cardiomyocytes; assay: as above
Summary of the method: as §1

30171 = donor line of iPSC-derived cardiomyocytes; assay: POD (EC05) for increase in beat frequency (positive chronotrope) vs vehicle; higher = less potent (higher point of departure)
Experimental: (§2)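 Human iPSC-derived cardiomyocytes from 16 donors were exposed for 90 min at 37 °C to each PFAS at 0.1, 1, 10 and 100 µM in 0.5% DMSO, 384-well plates. Kinetic Ca2+ flux (FLIPR) and Hoechst nuclei counts were normalised to vehicle wells and fitted with a hierarchical Bayesian Hill model to give donor-specific PODs: EC05 for beat-rate increase or decrease and for decay-to-rise ratio increase (QT proxy), EC95 for peak-frequency loss (asystole), EC10 for total cell number loss. 0.03 µM is the lower bound.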

1565 [6] = assay: as above
Experimental: as §2

1518 = donor line of iPSC-derived cardiomyocytes; assay: as above
Experimental: as §2

1434 = donor line of iPSC-derived cardiomyocytes; assay: as above
Experimental: as §2

1516 [7] = assay: as above
Experimental: as §2

1309 [8] = assay: as above
Experimental: as §2

20032 [9] = assay: as above
Experimental: as §2

1083 = donor line of iPSC-derived cardiomyocytes; assay: as above
Experimental: as §2

20084 [10] = assay: as above
Experimental: as §2

1118 = donor line of iPSC-derived cardiomyocytes; assay: as above
Experimental: as §2

11235 = donor line of iPSC-derived cardiomyocytes; assay: as above
Experimental: as §2

1531 = donor line of iPSC-derived cardiomyocytes; assay: as above
Experimental: as §2

Row | Compound | POD vs vehicle 1565 [1] [µM] | POD vs vehicle 30145 [µM] | POD vs vehicle 1516 [2] [µM] | POD vs vehicle 1309 [3] [µM] | POD vs vehicle 20032 [4] [µM] | POD vs vehicle 20084 [5] [µM] | POD vs vehicle 1535 [µM] | POD vs vehicle 1392 [µM] | POD vs vehicle 30171 [µM] | POD vs vehicle 1565 [6] [µM] | POD vs vehicle 1518 [µM] | POD vs vehicle 1434 [µM] | POD vs vehicle 1516 [7] [µM] | POD vs vehicle 1309 [8] [µM] | POD vs vehicle 20032 [9] [µM] | POD vs vehicle 1083 [µM] | POD vs vehicle 20084 [10] [µM] | POD vs vehicle 1118 [µM] | POD vs vehicle 11235 [µM] | POD vs vehicle 1531 [µM]
1 | O=C(O)C(F)(F)C(F)(F)OC(F)(F)F [Perfluoro-3-methoxypropanoic_acid] | > 100 | > 100 | > 100 | > 100 | > 100 | > 100 | > 100 | > 100 | > 100 | > 100 | > 100 | > 100 | > 100 | > 100 | > 100 | > 100 | > 100 | > 100 | > 100 | > 100
2 | O=C(O)C(F)(F)C(F)(F)C(F)(F)OC(F)(C(F)(F)F)C(F)(F)F [Perfluoro-4-isopropoxybutanoic_acid] | > 100 | > 100 | > 100 | > 100 | > 100 | > 100 | > 100 | > 100 | > 100 | > 100 | > 100 | > 100 | > 100 | > 100 | > 100 | > 100 | > 100 | > 100 | > 100 | > 100
3 | O=C(O)C(F)(F)C(F)(F)C(F)(F)F [Perfluorobutanoic_acid] | > 100 | > 100 | > 100 | > 100 | > 100 | > 100 | > 100 | > 100 | > 100 | > 100 | > 100 | > 100 | > 100 | > 100 | > 100 | > 100 | > 100 | > 100 | > 100 | > 100
4 | O=C(O)C(F)(F)C(F)(F)C(F)(F)C(F)(F)C(F)(F)C(F)(F)C(F)(F)C(F)(F)C(F)(F)F [Perfluorodecanoic_acid] | > 100 | > 100 | 14.9 | 56.2 | > 100 | 77.6 | 66.5 | 27.5 | > 100 | > 100 | > 100 | > 100 | > 100 | > 100 | > 100 | > 100 | > 100 | > 100 | > 100 | > 100
5 | O=C(O)C(F)(F)C(F)(F)C(F)(F)C(F)(F)C(F)(F)C(F)(F)F [Perfluoroheptanoic_acid] | > 100 | > 100 | 68.1 | > 100 | > 100 | > 100 | > 100 | > 100 | > 100 | > 100 | > 100 | > 100 | > 100 | > 100 | > 100 | > 100 | > 100 | > 100 | > 100 | > 100
6 | NS(=O)(=O)C(F)(F)C(F)(F)C(F)(F)C(F)(F)C(F)(F)C(F)(F)F [Perfluorohexanesulfonamide] | 92 | 34.9 | 14.3 | 14.7 | 13.4 | 54.4 | 12.6 | 91.8 | > 100 | > 100 | > 100 | > 100 | > 100 | > 100 | > 100 | > 100 | > 100 | > 100 | > 100 | > 100
7 | O=S(=O)(O)C(F)(F)C(F)(F)C(F)(F)C(F)(F)C(F)(F)C(F)(F)F [Perfluorohexanesulfonic_acid] | 81.7 | > 100 | 17.6 | 78.1 | 84.5 | > 100 | 43.4 | > 100 | > 100 | > 100 | > 100 | > 100 | > 100 | > 100 | > 100 | > 100 | > 100 | > 100 | > 100 | > 100
8 | O=C(O)C(F)(F)C(F)(F)C(F)(F)C(F)(F)C(F)(F)F [Perfluorohexanoic_acid] | > 100 | > 100 | > 100 | > 100 | > 100 | > 100 | > 100 | > 100 | > 100 | > 100 | > 100 | > 100 | > 100 | > 100 | > 100 | > 100 | > 100 | > 100 | > 100 | > 100
9 | O=C(O)C(F)(F)C(F)(F)C(F)(F)C(F)(F)C(F)(F)C(F)(F)C(F)(F)C(F)(F)F [Perfluorononanoic_acid] | > 100 | > 100 | 20.4 | 35.2 | 27.9 | > 100 | 31.8 | > 100 | > 100 | > 100 | > 100 | > 100 | > 100 | > 100 | > 100 | > 100 | > 100 | > 100 | > 100 | > 100
10 | NC(=O)C(F)(F)C(F)(F)C(F)(F)C(F)(F)C(F)(F)C(F)(F)C(F)(F)F [Perfluorooctanamide] | > 100 | > 100 | > 100 | > 100 | > 100 | > 100 | > 100 | > 100 | > 100 | > 100 | > 100 | > 100 | > 100 | > 100 | > 100 | > 100 | > 100 | > 100 | > 100 | > 100
11 | N=C(N)C(F)(F)C(F)(F)C(F)(F)C(F)(F)C(F)(F)C(F)(F)C(F)(F)F [Perfluorooctanamidine] | > 100 | > 100 | > 100 | > 100 | > 100 | > 100 | 2.86 | > 100 | > 100 | > 100 | > 100 | > 100 | > 100 | > 100 | > 100 | > 100 | > 100 | > 100 | > 100 | > 100
12 | O=S(=O)(O)C(F)(F)C(F)(F)C(F)(F)C(F)(F)C(F)(F)C(F)(F)C(F)(F)C(F)(F)F [Perfluorooctanesulfonic_acid] | > 100 | > 100 | 20.4 | > 100 | > 100 | 80.7 | > 100 | > 100 | > 100 | > 100 | > 100 | > 100 | > 100 | > 100 | > 100 | > 100 | > 100 | > 100 | > 100 | > 100
13 | O=C(O)C(F)(F)C(F)(F)C(F)(F)C(F)(F)C(F)(F)C(F)(F)C(F)(F)F [Perfluorooctanoic_acid] | > 100 | > 100 | 9 | 11.1 | 51.5 | > 100 | 41.8 | > 100 | > 100 | > 100 | > 100 | > 100 | > 100 | > 100 | > 100 | > 100 | > 100 | > 100 | > 100 | > 100
14 | O=C(O)C(F)(F)C(F)(F)C(F)(F)C(F)(F)F [Perfluoropentanoic_acid] | > 100 | > 100 | > 100 | > 100 | > 100 | > 100 | > 100 | > 100 | > 100 | > 100 | > 100 | > 100 | > 100 | > 100 | > 100 | > 100 | > 100 | > 100 | > 100 | > 100
15 | O=C(O)C(F)(F)C(F)(F)F [Perfluoropropanoic_acid] | > 100 | > 100 | > 100 | > 100 | > 100 | > 100 | > 100 | > 100 | > 100 | > 100 | > 100 | > 100 | > 100 | > 100 | > 100 | > 100 | > 100 | > 100 | > 100 | > 100
16 | O=S(=O)([O-])C(F)(F)C(F)(F)C(F)(F)C(F)(F)F.[K+] [Potassium_perfluorobutanesulfonate] | > 100 | > 100 | > 100 | > 100 | > 100 | > 100 | > 100 | > 100 | > 100 | > 100 | > 100 | > 100 | > 100 | > 100 | > 100 | > 100 | > 100 | > 100 | > 100 | > 100

From the supplement of paper PMC11368000
